The text below walks through data of US8148391B2 (Cephalon, Inc., priority 2006, dated 2012).

Structures are written as SMILES.

T2 sequence (Q9UM73 19-1620): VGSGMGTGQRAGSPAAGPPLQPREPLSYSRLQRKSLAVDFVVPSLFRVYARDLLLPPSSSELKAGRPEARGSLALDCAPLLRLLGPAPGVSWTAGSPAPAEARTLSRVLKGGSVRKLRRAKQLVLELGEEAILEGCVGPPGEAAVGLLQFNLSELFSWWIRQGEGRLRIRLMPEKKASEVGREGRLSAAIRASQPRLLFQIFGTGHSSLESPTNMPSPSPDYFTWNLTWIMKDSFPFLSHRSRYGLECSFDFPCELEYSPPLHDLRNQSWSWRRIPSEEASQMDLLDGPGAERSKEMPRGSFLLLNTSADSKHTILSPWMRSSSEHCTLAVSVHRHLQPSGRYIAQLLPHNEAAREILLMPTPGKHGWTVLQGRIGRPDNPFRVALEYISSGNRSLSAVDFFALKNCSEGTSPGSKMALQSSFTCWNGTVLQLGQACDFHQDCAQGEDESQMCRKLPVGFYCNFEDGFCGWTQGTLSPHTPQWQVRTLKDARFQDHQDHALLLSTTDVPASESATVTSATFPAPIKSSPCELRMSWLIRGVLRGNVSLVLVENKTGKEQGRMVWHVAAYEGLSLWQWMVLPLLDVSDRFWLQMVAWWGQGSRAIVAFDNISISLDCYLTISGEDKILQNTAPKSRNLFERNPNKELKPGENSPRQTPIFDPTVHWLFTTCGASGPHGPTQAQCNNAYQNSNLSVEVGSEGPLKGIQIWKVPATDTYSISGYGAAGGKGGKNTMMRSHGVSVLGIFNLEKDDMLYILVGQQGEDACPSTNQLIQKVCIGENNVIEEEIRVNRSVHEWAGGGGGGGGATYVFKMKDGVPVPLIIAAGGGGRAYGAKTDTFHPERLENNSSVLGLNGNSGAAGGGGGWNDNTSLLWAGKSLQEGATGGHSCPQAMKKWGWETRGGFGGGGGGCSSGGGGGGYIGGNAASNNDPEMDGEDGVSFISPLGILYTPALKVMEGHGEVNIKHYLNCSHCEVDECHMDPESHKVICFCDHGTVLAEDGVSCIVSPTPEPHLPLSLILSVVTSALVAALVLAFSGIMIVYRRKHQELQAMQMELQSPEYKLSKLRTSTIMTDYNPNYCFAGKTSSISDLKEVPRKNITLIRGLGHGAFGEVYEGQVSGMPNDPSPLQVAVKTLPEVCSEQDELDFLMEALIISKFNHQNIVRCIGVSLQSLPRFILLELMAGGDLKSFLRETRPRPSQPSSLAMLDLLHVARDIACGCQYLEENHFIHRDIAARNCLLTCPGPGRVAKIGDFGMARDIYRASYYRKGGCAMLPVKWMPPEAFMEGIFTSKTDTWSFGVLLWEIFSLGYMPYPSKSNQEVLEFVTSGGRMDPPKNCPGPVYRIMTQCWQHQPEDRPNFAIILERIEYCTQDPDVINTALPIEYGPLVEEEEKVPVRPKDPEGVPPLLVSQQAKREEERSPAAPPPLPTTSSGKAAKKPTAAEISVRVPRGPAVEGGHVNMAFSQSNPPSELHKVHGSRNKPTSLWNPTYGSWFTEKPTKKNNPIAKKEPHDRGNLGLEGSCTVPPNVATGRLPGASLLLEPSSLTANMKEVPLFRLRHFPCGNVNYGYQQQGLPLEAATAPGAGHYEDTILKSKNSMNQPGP

In one experiment the target is T1, c-Met (cytoplasmic domain) (Homo sapiens, UniProt P08581).
T1 construct: 10 ng/mL c-Met (cytoplasmic domain, Invitrogen Corporation #PV3143); purchased Invitrogen Corporation PV3143
T1 sequence (P08581 956-1390 limits assumed): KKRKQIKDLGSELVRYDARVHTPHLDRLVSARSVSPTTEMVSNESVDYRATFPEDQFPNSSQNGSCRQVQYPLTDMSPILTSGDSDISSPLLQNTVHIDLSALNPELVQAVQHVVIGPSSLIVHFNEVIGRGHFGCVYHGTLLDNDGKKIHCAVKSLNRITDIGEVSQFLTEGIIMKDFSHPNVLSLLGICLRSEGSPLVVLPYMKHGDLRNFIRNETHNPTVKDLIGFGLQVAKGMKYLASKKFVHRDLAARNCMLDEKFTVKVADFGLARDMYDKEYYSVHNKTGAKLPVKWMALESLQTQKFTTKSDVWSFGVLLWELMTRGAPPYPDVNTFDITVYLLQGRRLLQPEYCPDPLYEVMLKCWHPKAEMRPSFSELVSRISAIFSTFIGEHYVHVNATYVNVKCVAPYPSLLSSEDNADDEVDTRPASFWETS
Kind of experiment: c-Met Kinase Assay (same methods as for ALK, with modifications). The conditions noted are these: 1 μM ATP (Km level), 10 ng/mL c-Met; read-out: cMet Activity (c-Met kinase inhibition, IC50 class). Format: biochemical. On the procedure:
(§1) Briefly, each 96-well plate was coated with 100 μL/well of 10 μg/mL substrate (phospholipase C-γ) in Tris-buffered saline (TBS). […] The reaction was initiated by adding enzyme (30 ng/ml ALK) and was allowed to proceed at 37° C. for 15 minutes. Detection of the phosphorylated product was performed by adding 100 μl/well of Eu-N1 labeled PT66 antibody (Perkin Elmer # AD0041).
(§2) Data analysis was performed using ActivityBase (IDBS, Guilford, UK). IC50 values were calculated by plotting percent inhibition versus log10 of the concentration of compound and fitting to the nonlinear regression sigmoidal dose-response (variable slope) equation in XLFit (IDBS, Guilford, UK).
Reactions were initiated with 10 ng/mL c-Met (cytoplasmic domain, Invitrogen Corporation #PV3143).
As for `CNC(=O)CN1CCc2cc(Nc3ncc(Cl)c(Nc4ccc(N5CCOCC5)cc4OC)n3)c(OC)cc2CC1` [Example 1113, 2-{7-[5-Chloro-4-(2-methoxy-4-morpholin-4-yl-phenylamino)-pyrimidin-2-ylamino]-8-methoxy-1,2,4,5-tetrahydro-benzo[d]azepin-3-yl}-N-methyl-acetamide], the IC50 is over 10 µM.

With `COc1cc2c(cc1Nc1ncc(Cl)c(Nc3ccc(N4CCOCC4)cc3OC)n1)CCN(CCS(C)(=O)=O)CC2` [Example 1120, 5-Chloro-N*2*-[3-(2-methanesulfonyl-ethyl)-8-methoxy-2,3,4,5-tetrahydro-1H-benzo[d]azepin-7-yl]-N*4*-(2-methoxy-4-morpholin-4-yl-phenyl)-pyrimidine-2,4-diamine], the IC50 is over 10 µM. Same read-out and setting: the value for `COc1cc2c(cc1Nc1ncc(Cl)c(Nc3ccccc3OC)n1)CCN(CC(=O)N(C)C)CC2` [Example 1130, 2-{7-[5-Chloro-4-(2-methoxy-phenylamino)-pyrimidin-2-ylamino]-8-methoxy-1,2,4,5-tetrahydro-benzo[d]azepin-3-yl}-N,N-dimethyl-acetamide] was over 10 µM; that for `COc1cc2c(cc1Nc1ncc(Cl)c(Nc3ccc(C(N)=O)cc3OC)n1)CCN(CC(=O)N(C)C)CC2` [Example 1146, 4-[5-Chloro-2-(3-dimethylcarbamoylmethyl-8-methoxy-2,3,4,5-tetrahydro-1H-benzo[d]azepin-7-ylamino)-pyrimidin-4-ylamino]-3-methoxy-benzamide] was over 10 µM. For the molecule `COc1cc2c(cc1Nc1ncc(Cl)c(Nc3ccc(N4CCOCC4)cc3)n1)CCN(CC(=O)N(C)C)CC2` [Example 1150, 2-{7-[5-Chloro-4-(4-morpholin-4-yl-phenylamino)-pyrimidin-2-ylamino]-8-methoxy-1,2,4,5-tetrahydro-benzo[d]azepin-3-yl}-N,N-dimethyl-acetamide], the IC50 was over 10 µM. On the same count and under the same terms, the value for `COc1cc2c(cc1Nc1ncc(Cl)c(Nc3ccc(C#N)cc3OC)n1)CCN(CC(=O)N(C)C)CC2` [Example 1163, 2-{7-[5-Chloro-4-(4-cyano-2-methoxy-phenylamino)-pyrimidin-2-ylamino]-8-methoxy-1,2,4,5-tetrahydro-benzo[d]azepin-3-yl}-N,N-dimethyl-acetamide] was over 10 µM. Still for that read-out and setting: the result for `COCCOc1ccc(Nc2nc(Nc3cc4c(cc3OC)CCN(CC(=O)N(C)C)CC4)ncc2Cl)c(OC)c1` [Example 1169, 2-(7-{5-Chloro-4-[2-methoxy-4-(2-methoxy-ethoxy)-phenylamino]-pyrimidin-2-ylamino}-8-methoxy-1,2,4,5-tetrahydro-benzo[d]azepin-3-yl)-N,N-dimethyl-acetamide] reads over 10 µM.

The same experiment, now with this note: 1 μM ATP (Km level); read-out: cMet Activity (c-Met Kinase Inhibition, IC50).
In the case of `COc1cc2c(cc1Nc1ncc(Cl)c(Nc3ccc(N4CCOCC4)cc3OC)n1)CCN(CC(F)F)CC2` [Example 761, 5-Chloro-N*2*-[3-(2,2-difluoro-ethyl)-8-methoxy-2,3,4,5-tetrahydro-1H-benzo[d]azepin-7-yl]-N*4*-(2-methoxy-4-morpholin-4-yl-phenyl)-pyrimidine-2,4-diamine], the IC50 was over 10 µM.

`COc1ccc(Nc2nc(Nc3cc4c(cc3OC)CCN(CC(=O)N(C)C)CC4)ncc2Cl)c(OC)c1` [Example 812, 2-{7-[5-Chloro-4-(2,4-dimethoxy-phenylamino)-pyrimidin-2-ylamino]-8-methoxy-1,2,4,5-tetrahydro-benzo[d]azepin-3-yl}-N,N-dimethyl-acetamide]: the IC50 was over 10 µM.

The same experiment, now with this note: c-Met kinase inhibition, 1 μM ATP (Km level); read-out: cMet Activity.
With `COCCN1CCc2cc(Nc3ncc(Cl)c(Nc4ccc(N5CCOCC5)cc4OC)n3)c(OC)cc2CC1` [Example 113, 5-Chloro-N*2*-[8-methoxy-3-(2-methoxy-ethyl)-2,3,4,5-tetrahydro-1H-benzo[d]azepin-7-yl]-N*4*-(2-methoxy-4-morpholin-4-yl-phenyl)-pyrimidine-2,4-diamine], the IC50 is over 10 µM. Turning to `CCN1C(=O)CCCc2c1ccc(Nc1ncc(Cl)c(Nc3ccc(N4CCOCC4)cc3OC)n1)c2OC` [Example 119, 7-[5-Chloro-4-(2-methoxy-4-morpholin-4-yl-phenylamino)-pyrimidin-2-ylamino]-1-ethyl-6-methoxy-1,3,4,5-tetrahydro-benzo[b]azepin-2-one], the IC50 was over 10 µM.

Still in this experiment, the particulars now being: cMet Activity, c-Met kinase inhibition, 1 μM ATP (Km level).
`COc1cc2c(cc1Nc1ncc(Cl)c(Nc3ccc(N4CCOCC4)cc3OC)n1)CCN(CC(=O)N(C)C)CC2` [Example 261, 2-{7-[5-Chloro-4-(2-methoxy-4-morpholin-4-yl-phenylamino)-pyrimidin-2-ylamino]-8-methoxy-1,2,4,5-tetrahydro-benzo[d]azepin-3-yl}-N,N-dimethyl-acetamide] showed an IC50 of over 10 µM.

A further experiment has as its target T2, baculovirus-expressed ALK (Homo sapiens, UniProt Q9UM73).
T2 construct: host or cells: baculovirus expression system
Kind of experiment: ALK Kinase Assay (ELISA-type, time-resolved fluorescence). The class given is biochemical. The conditions noted are these: ALK kinase inhibition, 1 μM ATP; read-out: ALK Activity. On the procedure:
as §1, §2
`CNC(=O)c1cccc(F)c1Nc1nc(Nc2ccc3c(c2)NC(=O)CCC3(C)C)ncc1Cl` [Example 1574, 2-[5-Chloro-2-(5,5-dimethyl-2-oxo-2,3,4,5-tetrahydro-1H-benzo[b]azepin-8-ylamino)-pyrimidin-4-ylamino]-3-fluoro-N-methyl-benzamide]: the IC50 is 0.1 to 1 µM. Still for that read-out and setting: the result for `CCN1C(=O)CCC(C)(C)c2ccc(Nc3ncc(Cl)c(Nc4c(F)cccc4C(=O)NC)n3)cc21` [Example 1576, 2-[5-Chloro-2-(1-ethyl-5,5-dimethyl-2-oxo-2,3,4,5-tetrahydro-1H-benzo[b]azepin-8-ylamino)-pyrimidin-4-ylamino]-3-fluoro-N-methyl-benzamide] reads under 0.1 µM; that for `CNC(=O)c1cccc(F)c1Nc1nc(Nc2ccc3c(c2)N(CCOC)C(=O)CCC3(C)C)ncc1Cl` [Example 1581, 2-{5-Chloro-2-[1-(2-methoxy-ethyl)-5,5-dimethyl-2-oxo-2,3,4,5-tetrahydro-1H-benzo[b]azepin-8-ylamino]-pyrimidin-4-ylamino}-3-fluoro-N-methyl-benzamide], under 0.1 µM; that for `CNC(=O)c1cccc(F)c1Nc1nc(Nc2ccc3c(c2)N(C(C)C)C(=O)CCC3(C)C)ncc1Cl` [Example 1588, 2-[5-Chloro-2-(1-isopropyl-5,5-dimethyl-2-oxo-2,3,4,5-tetrahydro-1H-benzo[b]azepin-8-ylamino)-pyrimidin-4-ylamino]-3-fluoro-N-methyl-benzamide], under 0.1 µM.

`CNC(=O)c1cccc(F)c1Nc1nc(Nc2ccc3c(c2)N(CC(C)C)C(=O)CCC3(C)C)ncc1Cl` [Example 1592, 2-[5-Chloro-2-(1-isobutyl-5,5-dimethyl-2-oxo-2,3,4,5-tetrahydro-1H-benzo[b]azepin-8-ylamino)-pyrimidin-4-ylamino]-3-fluoro-N-methyl-benzamide]: the IC50 is under 0.1 µM. For `CCN1CCCOc2cc(Nc3ncc(Cl)c(Nc4c(F)cccc4C(=O)NC)n3)ccc21` [Example 1692, 2-[5-Chloro-2-(9-ethyl-6,7,8,9-tetrahydro-5-oxa-9-aza-benzocyclohepten-3-ylamino)-pyrimidin-4-ylamino]-3-fluoro-N-methyl-benzamide], the IC50 was under 0.1 µM.

Take `CCN1CCCOc2ccc(Nc3ncc(Cl)c(Nc4c(F)cccc4C(=O)NC)n3)cc21` [Example 1697, 2-[5-Chloro-2-(9-ethyl-6,7,8,9-tetrahydro-5-oxa-9-aza-benzocyclohepten-2-ylamino)-pyrimidin-4-ylamino]-3-fluoro-N-methyl-benzamide]: the IC50 is 0.1 to 1 µM.

Regarding `CNC(=O)c1cccc(F)c1Nc1nc(Nc2ccc3c(c2)N(C(C)=O)CCCO3)ncc1Cl` [Example 1701, 2-[2-(9-Acetyl-6,7,8,9-tetrahydro-5-oxa-9-aza-benzocyclohepten-2-ylamino)-5-chloro-pyrimidin-4-ylamino]-3-fluoro-N-methyl-benzamide], the IC50 is 0.1 to 1 µM. Turning to `CNC(=O)c1cccc(F)c1Nc1nc(Nc2ccc3c(c2)OCCCN3C(=O)CN2CCCC2)ncc1Cl` [Example 1714, 2-{5-Chloro-2-[9-(2-pyrrolidin-1-yl-acetyl)-6,7,8,9-tetrahydro-5-oxa-9-aza-benzocyclohepten-3-ylamino]-pyrimidin-4-ylamino}-3-fluoro-N-methyl-benzamide], the IC50 was in the range of 0.1 to 1 µM. For the molecule `CNC(=O)c1cccc(F)c1Nc1nc(Nc2ccc3c(c2)OCCCN3CCN2CCCC2)ncc1Cl` [Example 1718, 2-{5-Chloro-2-[9-(2-pyrrolidin-1-yl-ethyl)-6,7,8,9-tetrahydro-5-oxa-9-aza-benzocyclohepten-3-ylamino]-pyrimidin-4-ylamino}-3-fluoro-N-methyl-benzamide], the IC50 is under 0.1 µM. In the case of `CNC(=O)c1cccc(F)c1Nc1nc(Nc2ccc3c(c2)OCCCN3)ncc1Cl` [Example 1723, 2-[5-Chloro-2-(6,7,8,9-tetrahydro-5-oxa-9-aza-benzocyclohepten-3-ylamino)-pyrimidin-4-ylamino]-3-fluoro-N-methyl-benzamide], the IC50 fell in the range of 0.1 to 1 µM. Consider `CNC(=O)c1cccc(F)c1Nc1nc(Nc2ccc3c(c2)OCCCN3C(C)=O)ncc1Cl` [Example 1724, 2-[2-(9-Acetyl-6,7,8,9-tetrahydro-5-oxa-9-aza-benzocyclohepten-3-ylamino)-5-chloro-pyrimidin-4-ylamino]-3-fluoro-N-methyl-benzamide], for which the IC50 fell in the range of 0.1 to 1 µM. Still for that read-out and setting: the value for `CNC(=O)c1cccc(F)c1Nc1nc(Nc2ccc3c(c2)OCCCN3C(=O)COC)ncc1Cl` [Example 1726, 2-{5-Chloro-2-[9-(2-methoxy-acetyl)-6,7,8,9-tetrahydro-5-oxa-9-aza-benzocyclohepten-3-ylamino]-pyrimidin-4-ylamino}-3-fluoro-N-methyl-benzamide] was 0.1 to 1 µM.
